How the values were obtained:
[1] = PXRD study of crystalline form stability of uncapped samples in a 40° C./75% RH stability chamber; type: physicochemical; conditions: at least 4 weeks
Procedure: PXRD diffractograms were recorded on a Bruker-AXS D8 Discover powder X-ray diffractometer (Bruker-AXS, Karlsruhe, Germany). The X-rays were generated using an Incoatec Micro-focus X-ray source (IpSTube: Cu tube with λ=1.54060 Å) with a voltage of 50 kV and current of 1.00 mA, using a micro mask 0.3 mm plug-in pinhole microslit and a short UBC 45 mm long collimator with a 0.3 mm diameter. For each sample, one frame was collected using a still scan with a Pilatus 3R-100K-A area detector at the distance of 154.72 mm from the sample. Raw data were evaluated using the program DIFFRAC.EVA (Bruker-AXS, Karlsruhe, Germany).

[2] = Intrinsic dissolution rate (IDR) measurement, Wood apparatus; type: physicochemical; conditions: 900 mL distilled water, 37° C., 50 rpm
Procedure: Intrinsic dissolution rate (IDR) measurements were performed using a Wood apparatus (Pharma Test PT-DT8 instrument) having a bath temperature of 37° C. Samples were prepared by compressing 200-400 mg samples at 1.5 metric tons for 1 minute. A dissolution medium consisting of 900 mL distilled water, and rotation speed of 50 rpm, was used for each experiment.

[3] = system: Men with Prostate Cancer on Androgen Deprivation Therapy; conditions: 50 mg of zuclomiphene citrate, interim Phase 2 results; cited from earlier work

Substance | change in the crystalline form (PXRD) [1] | IDR (intrinsic dissolution rate) [2] [mg min^−1 cm^−2] | moderate to severe hot flashes, change from baseline [3]
zuclomiphene L-malate [zuclomiphene L-malate Form APO-I] | no change in the crystalline form occurred | 3.75 | –
zuclomiphene L-tartrate [zuclomiphene L-tartrate Form APO-I] | no change in the crystalline form occurred | 2.37 | –
zuclomiphene citrate | – | – | statistically significant decrease
zuclomiphene fumarate [zuclomiphene fumarate Form APO-I] | no change in the crystalline form occurred | – | –
zuclomiphene phosphate [zuclomiphene phosphate Form APO-I] | no change in the crystalline form occurred | – | –
zuclomiphene succinate [zuclomiphene succinate Form APO-I] | no change in the crystalline form occurred | – | –
zuclomiphene sulphate [zuclomiphene sulphate Form APO-I] | no change in the crystalline form occurred | – | –
zuclomiphene tosylate [zuclomiphene tosylate Form APO-I] | no change in the crystalline form occurred | – | –

From patent US20210292272A1, “Salts of Zuclomiphene” (Apotex Inc., priority 2020, published 2021)
